Consider 1 compound from patent publication US12303498B2, “ALK5 inhibitors as skeletal muscle hypertrophy inducers” (CYTOO, priority 2018, dated 2025).

Each structure is given as a SMILES string. Like-named read-outs stand apart in the source and are kept apart here.

The subject of test [1] is Donor Z (DMD donor) myotubes. The test is described as follows: Hypertrophy assay, combinations ALK5 inhibitor and glucocorticoid. The class given is cell-based, human. The note with it: 4 days of treatment, prednisolone 10 nM, RepSox or GW788388 300 nM, alone or combined.
Test [2] relates to Human primary myoblasts (healthy donors 3, 1 and 5). The test is described as follows: MyoScreen hypertrophy assay on myotubes from healthy donors. To be noted: for EC50 / activity at 10 µM: Homo sapiens, Myoblast. It counts as cell-based. The procedure:
(§1) Healthy donor primary skeletal cells (Donor 1, Donor 3 and Donor 5) were Clonetics™ Human Skeletal Muscle Myoblasts (HSMM). In addition, cells from three DMD (Duchenne muscular dystrophy) donors (Donor Z, W and D1) and from a healthy donor (Donor A) were sourced.
(§2) Hypertrophy and Atrophy Rescue assays were performed using an in vitro fully automated human myotube model called MyoScreen™ (Cytoo, France). This model relies on a tight control of the microenvironment that guides the differentiation of human primary myoblasts. Myotubes formed on MyoScreen™ micropatterns present a high level of maturation together with a highly standardized morphology.
(§3) Human primary myoblasts from donors were seeded in MyoScreen™ micropatterned 96-well plates (Cytoo, France), let them adhere for 24 h in growth medium, then run the differentiation in a low horse serum medium for at least 5 days.
(§4) At Day 0, MyoScreen™ plates (Cytoo, France) containing micropatterns were pre-filled with 200 μl/well of growth medium and stored in the incubator at 37° C. Human primary myoblasts were detached from the flasks, count, and seeded into the plates with 15 000 cells per well in 100 μl of growth medium.
(§5) At Day 1, the growth medium was changed for a differentiation medium, 300 μl/well (DMEM with 0.1% horse serum) in which myoblasts started differentiating and forming myotubes.
(§6) At Day 2, the differentiation medium was changed. Then candidate compounds were diluted with differentiation medium and transferred into the plate. The final concentration of DMSO should be not higher than 0.1%. At least 6 wells were treated with the vehicle as a basal control, and 6 wells were treated with IGF-1 at 100 ng/ml as positive hypertrophy control.
(§7) At Day 6, cells were fixed with formalin 5% for 30 min at room temperature, then permeabilized with Triton X-100 at 0.1% in PBS for 15 min, and blocked with PBS+BSA 1% for 20 minutes. Myotubes were incubated with first antibody against Troponin T in blocking buffer for 1 h30, washed three times with PBS, incubated with secondary antibody and Hoescht ( 1/10000) for 1 h30, and washed three times with PBS.
(§8) Images were acquired at 10× magnification with an Operetta High Content Imaging System. Image processing and analysis were performed with dedicated algorithms developed on the Acapella High Content Imaging Software (Perkin Elmer) by CYTOO. Eleven fields per well were acquired.
First, segmentation of myotubes and nuclei were done using respectively the Troponin T staining intensity and the Hoechst staining. […] The threshold of segmentation was set-up in order to avoid detecting the background noise and eliminate aberrant small myotube structures.
(§9) Then, an image clean-up step was performed on the Troponin T images in order to remove myotubes that touch the border of the image. The final valid myotubes were used to extract myotube morphology parameters including the myotube width and area, and the number of nuclei per myotube.
Nuclei Count, Fusion Index, Mean myotube Area and Number of nuclei per myotube have been validated as relevant and sensitive readouts of myotube differentiation as well as atrophic and hypertrophic induction.
A primary screening was run to identify hypertrophy compounds that increase the myotube differentiation and size. Candidate compounds were tested at 10 μM in monoplicate on Donor 3 cells.
A retest was run, by cherry picking (same compound batch as primary screening): each hit was tested in the same conditions as in the Primary Screening (Donor 3, 10 μM) in six well replicates.

Test [3] has as its system cells from DMD donors (Donor Z, W and D1). The test can be described thus: MyoScreen hypertrophy assay on myotubes from DMD donors. It counts as cell-based, human. To be noted: fusion index (compound)*100/basal control. The procedure: as §1, §2, §3, §4, §5, §6, §7, §8
First, segmentation of myotubes and nuclei were done using respectively the Troponin T staining intensity and the Hoechst staining. One to two myotubes per micropattern were usually identified (a myotube is a troponin T staining area that includes at least 2 nuclei). The threshold of segmentation was set-up in order to avoid detecting the background noise and eliminate aberrant small myotube structures. At the end of this first step, specific readouts were calculated in the whole well, like the nuclei count and the fusion index (percentage of nuclei included in troponin T staining) Usually around 50 to 60 myotubes were detected per well in a control condition.
as §9

The test system of test [4] is AChR clusters in MyoScreen myotubes. The test can be described thus: Acetylcholine receptor clustering assay. The class given is cell-based, human. The note with it: 8 days of differentiation including 7 days of drug treatment. The procedure: The MyoScreen™ protocol was performed as described in the Hypertrophy and Atrophy rescue assay described in Example 1 but was stopped at Day 9 instead of Day 6. At the end of the assay, AchR were immunostained using a specific antibody in addition to Troponin T and nuclei. Images were acquired at ×20 with an Operetta High Content Imaging System from Perkin Elmer. Image processing and analyses were performed with a dedicated algorithm developed on the Acapella High Content Imaging Software (Perkin Elmer). Specific readouts were calculated in each well: nuclei count and myotube fusion index, number of AchR, AchR mean area, AchR total area normalized by the myotube total area.
Remarkably, when labeled with a specific anti-AChR antibody, MyoScreen myotubes at 6 days post-differentiation display AChR clusters punctuated along the sarcolemma membrane in the middle of the myotube fibre and in distinct regions at the ends of myotubes. To develop an automated AChR cluster assay, an AChR detection routine was developed that was sensitive and robust enough to analyze aggregate number and size clusters in images using the Operetta/Acapella system.

In another test the test system is ACh-stimulated myotubes. The test can be described thus: Calcium flux assay after ACh stimulation. It counts as cell-based, human. The procedure: Cells were then incubated for 1 h with 2 μM Fluo-4 AM (F14201-Invitrogen) in an incubator (37° C., 5% CO2). After washing to remove unloaded dye, myotube responses to 20 μM ACh (A6625-Sigma-Aldrich), were videoimaged. Stream acquisitions were set at 1 sec intervals and one field of view was acquired per well. Images were processed and analyzed automatically using a dedicated software developed in-house integrating the open-source ImageJ framework. The image analysis tool segments the myotubes in images acquired in the same well. The Fluo-4 total fluorescence intensity was measured inside each myotube and corrected for background. The total intensity was normalized to the myotube area to obtain the mean fluorescence intensity readout.

On to `Cc1cccc(-c2n[nH]cc2-c2ccc3ncccc3n2)n1` [RepSox], for which the “increase in Fusion index” value in test [1] is listed as 100%. The “increase in Myotube mean area” value in test [1] amounted to 68%. Further, the “activity in dose responses on three healthy donors” value in test [2] (Donors 3, 5 and 1) was “active on all donors”. Moreover, the half-maximal effective concentration (EC50) was determined as 560 nM in test [2] (first dose response assay, healthy Donor 1, read-out: Donor 1 EC50); 5 nM in test [2] (first dose response assay, healthy Donor 3, read-out: Donor 3 EC50); 2.5 nM in test [2] (first dose response assay, healthy Donor 5, read-out: Donor 5 EC50); 5 nM in test [2] (second dose response assay, healthy Donor 3, read-out: EC50). Besides, the activity at 10 µM in test [2] (healthy Donor 3, monoplicate (IGF-1 100 ng/ml), % Activity = Myotube fusion index (compound)*100/Myotube Fusion index (basal control), read-out: Primary screening (% Activity)) is 183%; in test [2] (healthy Donor 3, six well replicates (IGF-1 100 ng/ml), fusion index vs basal control, read-out: Retest (% Activity)), 171%. In addition, in test [2] (first dose response assay, healthy Donor 1), the “Donor 1 % Activity” value stood at 143%. Moreover, the “Donor 3 % Activity” value in test [2] (first dose response assay, healthy Donor 3) worked out at 140%. Besides, in test [2] (first dose response assay, healthy Donor 5), the “Donor 5 % Activity” value came out at 204%. Further, in test [2] (primary screening and retest, Donor 3, 10 μM), the “increase in the fusion index or/and myotube area readouts” value is above 170%. Also, the “% Activity” value in test [2] (second dose response assay, healthy Donor 3) is reported as 140%. Also, the “Donor D1 (% Activity)” value in test [3] (DMD Donor D1) is given as 210%. Further, in test [3] (DMD Donor W), the “Donor W (% Activity)” value is listed as 120%. Moreover, in test [3] (DMD Donor Z), the “Donor Z (% Activity)” value worked out at 176%. The AChR clusters entry in test [4] is listed as “substantially more AChR clusters”. The “total AChR area increase” value in test [4] (vs control myotubes) was found to be 6 fold. The “increase in [Ca2+]i peak amplitude compared to control myotubes” value with ACh-stimulated myotubes (20 μM ACh stimulation, myotubes differentiated 8 days, 7 days with compound) is 1.56 fold. The “number of retracting myotubes after ACh stimulation” value in the test on ACh-stimulated myotubes (calcium flux time-lapse videos) is listed as “marked increase”.
